Laboratory results as given in patent US20240108702A1, “Use Of Naturally Occurring Cyclic Peptides For Treatment Of SARS-COV-2 Infection” (The University of Southern California, priority 2021, published 2024).
Where a SMILES comes first, the peptide text is derived from it. Bridges are numbered along the chain shown (N, C = ends).

How the values were obtained:
in vivo = conditions: both, cynomolgus monkey; for AUC(0-inf) / AUC / clearance / Cmax / MRT inf / Vd: iv, cynomolgus; for AUC(0-inf): AUC0-∞; for AUC: AUCτ; for clearance: CL; for MRT inf: MRTinf; for Vd: Vss
[1] = Single-dose i.v. bolus PK study in mice; format: in vivo, CD-1 mice
Procedure: Mouse studies: All procedures and protocols involving the use of animals were reviewed and approved by the University of Southern California (USC) IACUC (protocol #20538). Briefly, male (31.7-37.7 g) and female (25.2-35.6 g) CD-1 mice (Charles River Laboratories) were administered a single 5 mg/kg i.v. bolus injection of Peptide 1 (SEQ ID NO. 1) into the lateral tail vein. A total of 24 mice were separated into six groups (n=2/sex/group), with each group assigned to a single, pre-determined time point. Blood samples were collected at 0.25, 1, 2, 4, 8, and 24 h post-dose via terminal cardiac puncture. The collected samples were centrifuged to separate the plasma and stored at −80° C. until analysis.
Bioanalytical analysis: Clarified plasma samples from mice were directly diluted into 5% formic acid/5% acetonitrile. Quantitative analysis of Peptide 1 (SEQ ID NO. 1) was performed by LC-MS/MS with reverse-phase liquid chromatography (XBridge™ BEH phenyl 3.5 μm 3×100 mm column, Waters #186003328) on an Acquity™ H-Class UPLC (Waters) coupled to a Xevo™ TQ-S tandem electrospray mass spectrometry running MassLynx™ V4.1 (Waters). Quantitative mass spectroscopy was performed by multiple-reaction monitoring transition 417.32>517.21, with the area under the curve determined by TargetLynx™ (Waters). A synthetic theta defensin-like peptide was used as an internal standard (IS). The lower limit of quantification (LLOQ) of the assay was 1 ng/mL. Intra- and inter-assay precision (percent coefficient of variation [CV]) was ≤3%, and intra and interassay accuracy (% relative error) was ≤5%. Plasma Peptide 1 (SEQ ID NO. 1) concentration analyses for rats and cynomolgus monkey studies were performed at MicroConstants (San Diego, CA) by HPLC using a Mac-Mod™ Analytical ACE C4 column. The mobile phase was nebulized using heated nitrogen in Z-Spray source/interface set to electrospray positive ionization mode, and the compound was detected using MS/MS (LLOQ=10.0 ng/mL). Details of the method are summarized in the MicroConstants method No. MN20038. Clarified plasma samples from a serially sampled vervet were quantified by ultra-performance liquid chromatography Waters Acquity H-Class UPLC. […] Peptide 1 (SEQ ID NO. 1) peak and mass confirmation was performed on post PDA eluent using a Micromass Quattro Ultima™ mass spectrometer with MassLynx™ 4.1 (Waters). The lower limit of quantitation (LLOQ) ranged from 10-30 ng/mL (determined by sample background) to an upper limit of 50 ug/mL. RTD-2 (10 ug/mL) was used as an internal standard. Intra- and interassay precision (% coefficient of variation [CV]) was ≤3%, and intra and interassay accuracy (% relative error) was ≤5%.
Pharmacokinetic analysis: Non-compartmental analysis (NCA) was performed using Phoenix WinNonlin™ (version 8.3.1, Certara USA, Inc.; Princeton NJ) to determine the PK parameters in mice, rats, cynomolgus monkeys, and the vervet. Nominal sampling times were used in the analysis, and data below the lower limit of quantification of the assay were excluded from the analysis. The maximum plasma concentration (Cmax) was determined from visual inspection of the data. In addition, the following parameters were calculated: terminal elimination rate constant (λz), area under the curve extrapolated to infinity (AUC0-∞), area under the curve to dosing interval (AUCτ), mean residence time (MRT), clearance (CL), and volume of distribution at steady state (Vss). AUC was calculated using the linear up, log down method, and the λz was calculated using up to the last four data points of the log-linear terminal phase of the concentration-time profile. Due to sparsely sampled data in mice and rats, the sparse sampling calculation methodology in Phoenix WinNonlin™ was used, which generated a single estimate without standard error for all parameters, except for Cmax. For rats and cynomolgus monkeys, all parameters were calculated using sampling times relative to the beginning of the i.v. infusion.

[2] = 0.3 mg/kg, 0.3 mg/kg i.v., Day 1, mean
[3] = 1 mg/kg, 1 mg/kg i.v., Day 1, mean
[4] = 3 mg/kg, 3 mg/kg i.v., Day 1, mean
[5] = 5 mg/kg, 5 mg/kg i.v., Day 1, mean
[6] = 5 mg/kg/day, 5 mg/kg/day i.v., Day 10, mean
[7] = 10 mg/kg, 10 mg/kg i.v., Day 1, mean
[8] = 10 mg/kg/day, 10 mg/kg/day i.v., Day 10, mean
[9] = 15 mg/kg, 15 mg/kg i.v., Day 1, mean
[10] = 15 mg/kg/day, 15 mg/kg/day i.v., Day 4, mean
[11] = 15 mg/kg/day, 15 mg/kg/day i.v., Day 7, mean
[12] = 15 mg/kg/day, 15 mg/kg/day i.v., Day 10, mean
[13] = both sexes, CD-1, mouse, plasma, iv, single 5 mg/kg i.v. bolus

SMILES: CC[C@H](C)[C@@H]1NC(=O)[C@@H]2CSSC[C@H](NC(=O)[C@H](CCCNC(=N)N)NC(=O)[C@@H]3CSSC[C@H](NC1=O)C(=O)N[C@@H]([C@@H](C)O)C(=O)N[C@@H](CCCNC(=N)N)C(=O)NCC(=O)N[C@@H](Cc1ccccc1)C(=O)N3)C(=O)N[C@@H](CC(C)C)C(=O)N[C@H]1CSSC[C@H](NC(=O)[C@H](C(C)C)NC(=O)CNC(=O)[C@H](CCCNC(=N)N)NC(=O)[C@H](CCCNC(=N)N)NC1=O)C(=O)N[C@@H](CCCNC(=N)N)C(=O)N2 [Peptide 1] (cyclo(GFCRCLCRRGVCRCICTR); disulfide 3-16, 5-14, 7-12)
- half-life (in vivo): 9.53 h
- half-life (in vivo; 15 mg/kg): 47.2 h
- AUC(0-inf) (in vivo; [2]): 617 ng·h/mL
- AUC (in vivo; [2]): 591 ng·h/mL
- clearance (in vivo; [2]): 8.3 mL/min/kg
- Cmax (in vivo; [2]): 582 ng/mL
- MRT inf (in vivo; [2]): 1.24 h
- Vd (in vivo; [2]): 0.626 L/kg
- AUC(0-inf) (in vivo; [3]): 3880 ng·h/mL
- AUC (in vivo; [3]): 3820 ng·h/mL
- clearance (in vivo; [3]): 4.43 mL/min/kg
- Cmax (in vivo; [3]): 2560 ng/mL
- MRT inf (in vivo; [3]): 1.82 h
- Vd (in vivo; [3]): 0.486 L/kg
- AUC(0-inf) (in vivo; [4]): 10700 ng·h/mL
- AUC (in vivo; [4]): 10300 ng·h/mL
- clearance (in vivo; [4]): 4.78 mL/min/kg
- Cmax (in vivo; [4]): 4750 ng/mL
- MRT inf (in vivo; [4]): 4.3 h
- Vd (in vivo; [4]): 1.22 L/kg
- AUC(0-inf) (in vivo; [5]): 27200 ng·h/mL
- AUC (in vivo; [5]): 27200 ng·h/mL
- clearance (in vivo; [5]): 3.13 mL/min/kg
- Cmax (in vivo; [5]): 10700 ng/mL
- MRT inf (in vivo; [5]): 2.94 h
- Vd (in vivo; [5]): 0.55 L/kg
- AUC(0-inf) (in vivo; [6]): 40000 ng·h/mL
- AUC (in vivo; [6]): 38900 ng·h/mL
- clearance (in vivo; [6]): 2.27 mL/min/kg
- Cmax (in vivo; [6]): 11700 ng/mL
- MRT inf (in vivo; [6]): 4.84 h
- Vd (in vivo; [6]): 0.645 L/kg
- AUC(0-inf) (in vivo; [7]): 76800 ng·h/mL
- AUC (in vivo; [7]): 76100 ng·h/mL
- clearance (in vivo; [7]): 2.38 mL/min/kg
- Cmax (in vivo; [7]): 26700 ng/mL
- MRT inf (in vivo; [7]): 4.4 h
- Vd (in vivo; [7]): 0.629 L/kg
- AUC(0-inf) (in vivo; [8]): 125000 ng·h/mL
- AUC (in vivo; [8]): 118000 ng·h/mL
- clearance (in vivo; [8]): 1.48 mL/min/kg
- Cmax (in vivo; [8]): 27300 ng/mL
- MRT inf (in vivo; [8]): 7.2 h
- Vd (in vivo; [8]): 0.624 L/kg
- AUC(0-inf) (in vivo; [9]): 142000 ng·h/mL
- AUC (in vivo; [9]): 138000 ng·h/mL
- clearance (in vivo; [9]): 1.9 mL/min/kg
- Cmax (in vivo; [9]): 46500 ng/mL
- MRT inf (in vivo; [9]): 5.48 h
- Vd (in vivo; [9]): 0.629 L/kg
- AUC(0-inf) (in vivo; [10]): 167000 ng·h/mL
- AUC(0-inf) (in vivo; [11]): 188000 ng·h/mL
- AUC(0-inf) (in vivo; [12]): 213000 ng·h/mL
- AUC (in vivo; [10]): 140000 ng·h/mL
- AUC (in vivo; [11]): 154000 ng·h/mL
- AUC (in vivo; [12]): 173000 ng·h/mL
- clearance (in vivo; [10]): 1.78 mL/min/kg
- clearance (in vivo; [11]): 1.63 mL/min/kg
- clearance (in vivo; [12]): 1.72 mL/min/kg
- Cmax (in vivo; [10]): 31100 ng/mL
- Cmax (in vivo; [11]): 32800 ng/mL
- Cmax (in vivo; [12]): 32200 ng/mL
- MRT inf (in vivo; [10]): 11.8 h
- MRT inf (in vivo; [11]): 12.3 h
- MRT inf (in vivo; [12]): 12 h
- Vd (in vivo; [10]): 1.26 L/kg
- Vd (in vivo; [11]): 1.19 L/kg
- Vd (in vivo; [12]): 1.14 L/kg
- AUC [1, 13]: 12300 ng·h/mL
- AUC(0-inf) [1, 13]: 12500 ng·h/mL
- MRT [1, 13]: 2.62 h
- clearance [1, 13]: 6.67 mL/min/kg
- Cmax ([1]; both sexes, CD-1, mouse, plasma, iv, single 5 mg/kg i.v. bolus, estimate (SE)): 8920 ng/mL
- Vd ([1]; both sexes, CD-1, mouse, plasma, iv, single 5 mg/kg i.v. bolus, read-out: Vss): 1.05 L/kg
- λz ([1]; single 5 mg/kg i.v. bolus): 0.114 h⁻¹
- elimination phase half-life ([1]; single i.v. bolus): 6.05 h
